Measurements reported in US20200371122A1, “BIOMARKER FOR SENESCENT CELLS” (Buck Institute for Research on Aging, priority 2017, published 2020).

Columns and labels:
Type in all cases: cell-based, human
[1] = test system: PPARγ; test: PPARγ luciferase reporter in irradiated IMR-90 fibroblasts; settings: senescent cells, 10 days
Excerpt: Lentiviral NF-κB reporter constructs (SA Biosciences) and baculoviral PPAR gamma constructs (Signosis) were transduced into proliferating cells. Following treatment, luciferase was extracted using Passive Lysis Buffer (Promega) and analyzed using a commercially available kit (Promega) using a Perkin-Elmer Victor™ X3 luminometer.

[2] = test system: MDA-MB-231; test: Cleaved caspase-3 immunofluorescence in breast cancer cells; settings: p53-mutant cell line, 10 μM, 3 days
Experimental: (§1) Human fetal lung fibroblasts (IMR-90) were cultured in Dulbecco's modified eagle medium (DMEM) supplemented with 10% FBS and penicillin/streptomycin. LL 29 (AnHa) cells were obtained from the ATCC and growth to confluence using the ATCC protocol, but were subcultured as described for IMR-90 before initiation of all experiments. Quiescence was induced by replacing culture media with media containing 0.2% FBS. MCF-7 and MDA-MB-231 breast cancer cells were cultured in RPMI supplemented with 10% FBS and penicillin/streptomycin. All cells were cultured at 3% O2, and used between 25 and 40 population doublings. All cells were mycoplasma free.
(§2) For EdU labeling, cells were cultured with EdU (10 μM) for 24 h, fixed in 4% buffered formalin for 10 min, washed in PBS, and permeabilized in 0.5% Triton X-100 for 30 min. Cells were treated as instructed by the manufacturer Life Technologies Cat #C10337). For immunofluorescence, cells were blocked in 10% normal goat serum for 30 min, washed, and incubated overnight in antibodies to Ki67 (Abcam) or cleaved caspase 3 (Cell Signaling). Cell were then washed, incubated in fluorescent secondary antibodies, and mounted using vectashield mounting medium with DAPI.

[3] = test system: MCF7; test: as above; settings: p53-positive cell line, 10 μM, 3 days
Experimental: as §1, §2

SMILES	PPARγ activation reduced [1]	apoptosis (cleaved caspase-3) [2]	apoptosis (cleaved caspase-3) [3]
CS(=O)(=O)Nc1ccc([N+](=O)[O-])cc1OC1CCCCC1 [NS-398]	~50%		
CCCCC/C=C/C=C1/C(=O)C=C[C@@H]1C/C=C\CCCC(=O)O [15d-PGJ2]		induced apoptosis	did not
